# From ChEMBL document CHEMBL2062480, “Semi-synthesis and anti-tumor evaluation of novel 25-hydroxyprotopanaxadiol derivatives” (Eur J Med Chem, 2012)
# What was measured:
# MCF7 [1] = experiment: Antiproliferative activity against human MCF7 cells after 48 hrs by MTT assay; assay type: functional, cell-based; conditions: for IC50: MCF7, 48 h
# A549 = experiment: Antiproliferative activity against human A549 cells after 48 hrs by MTT assay; assay type: functional, cell-based; conditions: A549, 48 h
# LoVo = experiment: Antiproliferative activity against human LoVo cells after 48 hrs by MTT assay; assay type: functional, cell-based
# [2] = Antiproliferative activity against human IOSE-144 cells after 48 hrs by MTT assay; assay type: cell-based; conditions: IOSE-144, 48 h
# MCF7 [3] = experiment: Antiproliferative activity against human MCF7 cells assessed as cell viability at 30 uM after 48 hrs by MTT assay; assay type: functional; conditions: MCF7, 48 h, read-out: Activity
Compound,IC50 (MCF7 [1]) [µM],IC50 (A549) [µM],IC50 (LoVo) [µM],IC50 [2] [µM],viability at 30 µM (MCF7 [3]) [%],Activity (MCF7 [1])
CCCCCCCC/C=C\CCCCCCCC(=O)O[C@@H]1C[C@@H]2[C@@]3(C)CC[C@H](O)C(C)(C)[C@@H]3CC[C@@]2(C)[C@]2(C)CC[C@H]([C@](C)(O)CCCC(C)(C)O)[C@@H]12,> 100,> 100,> 100,> 100,–,–
CCCCCCCCCCCCCCCCCC(=O)O[C@@H]1C[C@@H]2[C@@]3(C)CC[C@H](O)C(C)(C)[C@@H]3CC[C@@]2(C)[C@]2(C)CC[C@H]([C@](C)(O)CCCC(C)(C)O)[C@@H]12,> 100,> 100,> 100,> 100,–,–
CCC(=O)O[C@@H]1C[C@@H]2[C@@]3(C)CC[C@H](O)C(C)(C)[C@@H]3CC[C@@]2(C)[C@]2(C)CC[C@H]([C@](C)(O)CCCC(C)(C)O)[C@@H]12,10.4,17.7,40.3,> 100,17.1,–
CCCC(=O)O[C@H]1CC[C@]2(C)[C@H]3C[C@@H](O)[C@@H]4[C@@H]([C@](C)(O)CCCC(C)(C)O)CC[C@@]4(C)[C@]3(C)CC[C@H]2C1(C)C,42.8,35.5,> 50,> 100,–,–
CCCC(=O)O[C@@H]1C[C@@H]2[C@@]3(C)CC[C@H](O)C(C)(C)[C@@H]3CC[C@@]2(C)[C@]2(C)CC[C@H]([C@](C)(O)CCCC(C)(C)O)[C@@H]12,32.8,25.5,38.3,> 100,28.5,–
CCCCCCCC(=O)O[C@H]1CC[C@]2(C)[C@H]3C[C@@H](O)[C@@H]4[C@@H]([C@](C)(O)CCCC(C)(C)O)CC[C@@]4(C)[C@]3(C)CC[C@H]2C1(C)C,> 100,46.7,> 50,> 100,–,–
CC(=O)O[C@H]1CC[C@]2(C)[C@H]3C[C@@H](O)[C@@H]4[C@@H]([C@](C)(O)CCCC(C)(C)O)CC[C@@]4(C)[C@]3(C)CC[C@H]2C1(C)C,15.2,15.7,> 50,> 100,–,Dose-dependent effect
CCCCCCCCCC(=O)O[C@@H]1C[C@@H]2[C@@]3(C)CC[C@H](O)C(C)(C)[C@@H]3CC[C@@]2(C)[C@]2(C)CC[C@H]([C@](C)(O)CCCC(C)(C)O)[C@@H]12,26.2,29.6,> 50,> 100,–,–
CC(C)(O)CCC[C@@](C)(O)[C@H]1CC[C@]2(C)[C@@H]1[C@H](O)C[C@@H]1[C@@]3(C)CC[C@H](O)C(C)(C)[C@@H]3CC[C@]12C,48.9,34.2,45.2,> 100,66.3,–
CCC(=O)O[C@H]1CC[C@]2(C)[C@H]3C[C@@H](O)[C@@H]4[C@@H]([C@](C)(O)CCCC(C)(C)O)CC[C@@]4(C)[C@]3(C)CC[C@H]2C1(C)C,12.5,43.6,> 50,> 100,–,Dose-dependent effect
CCCCC(=O)O[C@H]1CC[C@]2(C)[C@H]3C[C@@H](OC(=O)CCCC)[C@@H]4[C@@H]([C@](C)(O)CCCC(C)(C)O)CC[C@@]4(C)[C@]3(C)CC[C@H]2C1(C)C,> 50,49.9,> 50,> 100,–,–
CCCCCCCCCCCCCC(=O)O[C@@H]1C[C@@H]2[C@@]3(C)CC[C@H](O)C(C)(C)[C@@H]3CC[C@@]2(C)[C@]2(C)CC[C@H]([C@](C)(O)CCCC(C)(C)O)[C@@H]12,> 100,> 100,> 100,> 100,–,–
CCCCCCC(=O)O[C@H]1CC[C@]2(C)[C@H]3C[C@@H](O)[C@@H]4[C@@H]([C@](C)(O)CCCC(C)(C)O)CC[C@@]4(C)[C@]3(C)CC[C@H]2C1(C)C,33.7,16.8,> 50,> 100,–,–
CCCCCC(=O)O[C@H]1CC[C@]2(C)[C@H]3C[C@@H](O)[C@@H]4[C@@H]([C@](C)(O)CCCC(C)(C)O)CC[C@@]4(C)[C@]3(C)CC[C@H]2C1(C)C,> 50,26.2,> 50,> 100,–,–
CCCCCCCC/C=C\CCCCCCCC(=O)O[C@H]1CC[C@]2(C)[C@H]3C[C@@H](O)[C@@H]4[C@@H]([C@](C)(O)CCCC(C)(C)O)CC[C@@]4(C)[C@]3(C)CC[C@H]2C1(C)C,> 100,> 100,> 100,> 100,–,–
CCCCCCCCCCCC(=O)O[C@@H]1C[C@@H]2[C@@]3(C)CC[C@H](O)C(C)(C)[C@@H]3CC[C@@]2(C)[C@]2(C)CC[C@H]([C@](C)(O)CCCC(C)(C)O)[C@@H]12,> 100,> 100,> 50,> 100,–,–
